Assay in all cases: DTP human tumour cell line panel, 48 h
Experiment [1] deals with HOP-62.
The subject of experiment [2] is MDA-N.
Experiment [3] concerns HOP-92.
Experiment [4] concerns MDA-MB-435.
Experiment [5] deals with MOLT-4.
The subject of experiment [6] is TK-10.
The subject of experiment [7] is HCT-15.
For experiment [8], the system named is SW-620.
The subject of experiment [9] is SK-MEL-5.
For experiment [10], the system named is IGROV-1.
The test system of experiment [11] is SK-MEL-2.
For experiment [12], the system named is KM12.
Experiment [13] has as its system UACC-62.
Experiment [14] deals with DU-145.
Experiment [15] concerns OVCAR-3.
Experiment [16] has as its system HT-29.
Experiment [17] deals with NCI-H522.
In experiment [18] the test system is NCI/ADR-RES.
Experiment [19] deals with UO-31.

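All cell lines were grown in 96-well plates and treated with compound for 48 hours. GI50 marks 50% less growth.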 Activity calls are given as the source filed them. Rule as the data show it: active = GI50 up to about 1.1 µM and inactive = higher.

As for `CC(=O)N1c2ccccc2[C@H]2CCc3c([nH]c4ccccc34)[C@H]21`, the GI50 (commonly the concentration at which growth is held to half of that of the control) in experiment [1] was 12.6 µM (inactive); in experiment [2], 18.5 µM (inactive); in [3], 14.4 µM (inactive); in [4], 16.7 µM (inactive); in experiment [5], 11.2 µM (inactive); in experiment [6] it was 41.5 µM (inactive). The GI50 in experiment [7] was 11.3 µM; in experiment [8], 12 µM (inactive); in experiment [9], 12.9 µM (inactive); in [10] it was 4.33 µM (inactive); in experiment [11], 19.2 µM (inactive); in experiment [12] it was 11.1 µM (inactive). Also, the GI50 is 12.3 µM (inactive) in experiment [13]; 20.1 µM (inactive) in [14]; 15.4 µM (inactive) in experiment [15]; 8.11 µM (inactive) in experiment [16]; 20.4 µM (inactive) in experiment [17]; 23.3 µM (inactive) in experiment [18]. In [19], the GI50 was 6.31 µM (inactive).
Regarding `O=C(N/N=C\c1ccc(Cl)cc1)Nc1cccc2ccccc12`, the GI50 was 2.01 µM (inactive) in [1]; 2.21 µM (inactive) in [2]; 4.91 µM (inactive) in [3]; 2 µM (inactive) in experiment [4]; 5.61 µM (inactive) in experiment [5]; 3.32 µM (inactive) in [6]. For the same compound, the GI50 is 3.36 µM in [7]; 3.41 µM (inactive) in experiment [8]; 4.45 µM (inactive) in experiment [9]; 3.49 µM (inactive) in [10]; 21.5 µM (inactive) in experiment [11]; 2.61 µM (inactive) in experiment [12]. Moreover, the GI50 was 9.48 µM (inactive) in experiment [13]; 5.57 µM (inactive) in experiment [14]; 1.54 µM (inactive) in [15]; 3.21 µM (inactive) in experiment [16]; 4.83 µM (inactive) in experiment [17]; > 25 µM (inactive) in experiment [18]. The GI50 in [19] is 2.1 µM (inactive).
Consider `COc1ccc2nc3cc([N+](=O)[O-])ccc3c(NNc3ccc(Cl)cc3)c2c1`, for which the GI50 is 21.8 µM (inactive) in [1]; 31.6 µM (inactive) in [2]; 20.9 µM (inactive) in experiment [3]; 26.1 µM (inactive) in experiment [4]; 26.1 µM (inactive) in [5]; 1.9 µM (inactive) in experiment [6]. In addition, the GI50 was 45.5 µM in experiment [7]; 12.1 µM (inactive) in experiment [8]; 14.7 µM (inactive) in experiment [9]; 2.94 µM (inactive) in [10]; 18.7 µM (inactive) in experiment [11]; 26.1 µM (inactive) in experiment [12]. Moreover, the GI50 was 2.44 µM (inactive) in experiment [13]; 38.9 µM (inactive) in experiment [14]; 2.39 µM (inactive) in experiment [15]; 15.2 µM (inactive) in experiment [16]; 22.6 µM (inactive) in [17]; 32.6 µM (inactive) in experiment [18]. In addition, the GI50 in experiment [19] was 34.3 µM (inactive).
For `CC(O)CCNC(=O)Nc1c(C(F)(F)F)cc(-c2ccccc2)[nH]c1=O` (stereo unspecified), the GI50 in experiment [1], in [2], in experiment [3], in experiment [4], in [5] and in experiment [6] was > 100 µM (inactive) in each case. For the same compound, the GI50 in experiment [7] is more than 100 µM; in experiment [8], > 100 µM (inactive); in [9], > 100 µM (inactive); in experiment [10] it was > 100 µM (inactive); in [11], > 100 µM (inactive); in experiment [12] it was > 100 µM (inactive). Moreover, the GI50 in [13], in [14], in experiment [15], in experiment [16], in experiment [17] and in [18] was > 100 µM (inactive) each time. Also, the GI50 in [19] is > 100 µM (inactive).

The values above are taken from ChEMBL document CHEMBL1201862, “PubChem BioAssay data set” (2004).
